Numbers after ± are expanded uncertainties.
Assay: excess molar enthalpy (molar enthalpy of mixing); xn = mol fraction of the nth substance listed
Details: 298.15 K, 101.33 kPa, Liquid, Parr 1455 Solution Calorimeter

SMILES: O=Cc1ccccc1 [benzaldehyde] + CCO
- excess molar enthalpy (x1 = 0.0912): 0.141 ± 0.0016 kcal/mol
- excess molar enthalpy (x1 = 0.1809): 0.2267 ± 0.00208 kcal/mol
- excess molar enthalpy (x1 = 0.2707): 0.2786 ± 0.00239 kcal/mol
- excess molar enthalpy (x1 = 0.3603): 0.3025 ± 0.00263 kcal/mol
- excess molar enthalpy (x1 = 0.4503): 0.3107 ± 0.00263 kcal/mol
- excess molar enthalpy (x1 = 0.5405): 0.3059 ± 0.00263 kcal/mol
- excess molar enthalpy (x1 = 0.628): 0.2864 ± 0.00239 kcal/mol
- excess molar enthalpy (x1 = 0.669): 0.2707 ± 0.00232 kcal/mol
- excess molar enthalpy (x1 = 0.7164): 0.2485 ± 0.00217 kcal/mol
- excess molar enthalpy (x1 = 0.7714): 0.2182 ± 0.00198 kcal/mol
- excess molar enthalpy (x1 = 0.8358): 0.17 ± 0.00172 kcal/mol
- excess molar enthalpy (x1 = 0.9114): 0.101 ± 0.00131 kcal/mol

SMILES: O=Cc1ccccc1 [benzaldehyde] + CCCCO
- excess molar enthalpy (x1 = 0.0759): 0.142 ± 0.00194 kcal/mol
- excess molar enthalpy (x1 = 0.1555): 0.256 ± 0.00263 kcal/mol
- excess molar enthalpy (x1 = 0.2374): 0.3417 ± 0.00287 kcal/mol
- excess molar enthalpy (x1 = 0.3186): 0.4036 ± 0.00335 kcal/mol
- excess molar enthalpy (x1 = 0.4053): 0.4345 ± 0.00359 kcal/mol
- excess molar enthalpy (x1 = 0.4922): 0.4468 ± 0.00359 kcal/mol
- excess molar enthalpy (x1 = 0.5824): 0.4391 ± 0.00359 kcal/mol
- excess molar enthalpy (x1 = 0.6314): 0.4243 ± 0.00359 kcal/mol
- excess molar enthalpy (x1 = 0.6755): 0.4059 ± 0.00335 kcal/mol
- excess molar enthalpy (x1 = 0.7923): 0.3146 ± 0.00287 kcal/mol
- excess molar enthalpy (x1 = 0.8945): 0.195 ± 0.0021 kcal/mol
- excess molar enthalpy (x1 = 0.9245): 0.146 ± 0.00208 kcal/mol

SMILES: O=Cc1ccccc1 [benzaldehyde] + CCCCCO
- excess molar enthalpy (x1 = 0.0899): 0.152 ± 0.00198 kcal/mol
- excess molar enthalpy (x1 = 0.1799): 0.2818 ± 0.00263 kcal/mol
- excess molar enthalpy (x1 = 0.2699): 0.38 ± 0.00335 kcal/mol
- excess molar enthalpy (x1 = 0.36): 0.435 ± 0.00359 kcal/mol
- excess molar enthalpy (x1 = 0.4499): 0.4637 ± 0.00382 kcal/mol
- excess molar enthalpy (x1 = 0.54): 0.4661 ± 0.00382 kcal/mol
- excess molar enthalpy (x1 = 0.6259): 0.4405 ± 0.00359 kcal/mol
- excess molar enthalpy (x1 = 0.6898): 0.4032 ± 0.00335 kcal/mol
- excess molar enthalpy (x1 = 0.7523): 0.357 ± 0.00311 kcal/mol
- excess molar enthalpy (x1 = 0.8094): 0.2997 ± 0.00263 kcal/mol
- excess molar enthalpy (x1 = 0.8426): 0.261 ± 0.00263 kcal/mol
- excess molar enthalpy (x1 = 0.9015): 0.184 ± 0.00208 kcal/mol

SMILES: O=Cc1ccccc1 [benzaldehyde] + CO
- excess molar enthalpy (x1 = 0.0877): 0.0955 ± 0.00115 kcal/mol
- excess molar enthalpy (x1 = 0.1795): 0.1561 ± 0.00151 kcal/mol
- excess molar enthalpy (x1 = 0.2704): 0.1984 ± 0.00177 kcal/mol
- excess molar enthalpy (x1 = 0.3608): 0.2242 ± 0.00194 kcal/mol
- excess molar enthalpy (x1 = 0.4509): 0.2352 ± 0.00201 kcal/mol
- excess molar enthalpy (x1 = 0.5406): 0.2337 ± 0.00201 kcal/mol
- excess molar enthalpy (x1 = 0.6153): 0.223 ± 0.00194 kcal/mol
- excess molar enthalpy (x1 = 0.6966): 0.1983 ± 0.00174 kcal/mol
- excess molar enthalpy (x1 = 0.7344): 0.1826 ± 0.00167 kcal/mol
- excess molar enthalpy (x1 = 0.7803): 0.1603 ± 0.00153 kcal/mol
- excess molar enthalpy (x1 = 0.8379): 0.128 ± 0.00134 kcal/mol
- excess molar enthalpy (x1 = 0.9092): 0.078 ± 0.00105 kcal/mol

SMILES: O=Cc1ccccc1 [benzaldehyde] + CCCO
- excess molar enthalpy (x1 = 0.0896): 0.158 ± 0.00184 kcal/mol
- excess molar enthalpy (x1 = 0.1797): 0.2632 ± 0.00239 kcal/mol
- excess molar enthalpy (x1 = 0.2698): 0.3294 ± 0.00287 kcal/mol
- excess molar enthalpy (x1 = 0.3598): 0.3728 ± 0.00311 kcal/mol
- excess molar enthalpy (x1 = 0.4822): 0.391 ± 0.00311 kcal/mol
- excess molar enthalpy (x1 = 0.5559): 0.3871 ± 0.00311 kcal/mol
- excess molar enthalpy (x1 = 0.5989): 0.3774 ± 0.00311 kcal/mol
- excess molar enthalpy (x1 = 0.647): 0.3642 ± 0.00311 kcal/mol
- excess molar enthalpy (x1 = 0.7017): 0.3388 ± 0.00287 kcal/mol
- excess molar enthalpy (x1 = 0.7626): 0.3006 ± 0.00263 kcal/mol
- excess molar enthalpy (x1 = 0.8323): 0.237 ± 0.00227 kcal/mol
- excess molar enthalpy (x1 = 0.9112): 0.146 ± 0.00174 kcal/mol

— the NIST ThermoML archive (doi:10.1016/j.jct.2011.05.014)
